Test results published in patent US10377770B2 (Novartis AG, priority 2015, dated 2019).

Target: C-Raf FL (full length CRAF with Y340E and Y341E activating mutations, co-expressed with h14-3-3 zeta) (Homo sapiens (Human), UniProt P04049, Y340E/Y341E)
Test: In vitro Raf activity determination, AlphaScreen p-MEK readout, c-Raf (C-Raf FL)
Format: biochemical
Conditions: c-Raf approximately 4 nM, ATP 1 μM, pre-incubation 60 minutes, reaction 1 hour
In short: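 Full-length C-Raf (~4 nM) pre-incubated 60 min at room temperature with compound and kinase-dead biotinylated MEK1 (~10 nM) in Tris pH 7.5, 15 mM MgCl2, BSA, DTT. Reaction started with 1 μM ATP and run 1 h at room temperature. Phospho-MEK detected by AlphaScreen with anti-p-MEK antibody.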

Sequence of C-Raf FL (full length CRAF with Y340E and Y341E activating mutations, co-expressed with h14-3-3 zeta) (P04049 whole entry Y340E/Y341E): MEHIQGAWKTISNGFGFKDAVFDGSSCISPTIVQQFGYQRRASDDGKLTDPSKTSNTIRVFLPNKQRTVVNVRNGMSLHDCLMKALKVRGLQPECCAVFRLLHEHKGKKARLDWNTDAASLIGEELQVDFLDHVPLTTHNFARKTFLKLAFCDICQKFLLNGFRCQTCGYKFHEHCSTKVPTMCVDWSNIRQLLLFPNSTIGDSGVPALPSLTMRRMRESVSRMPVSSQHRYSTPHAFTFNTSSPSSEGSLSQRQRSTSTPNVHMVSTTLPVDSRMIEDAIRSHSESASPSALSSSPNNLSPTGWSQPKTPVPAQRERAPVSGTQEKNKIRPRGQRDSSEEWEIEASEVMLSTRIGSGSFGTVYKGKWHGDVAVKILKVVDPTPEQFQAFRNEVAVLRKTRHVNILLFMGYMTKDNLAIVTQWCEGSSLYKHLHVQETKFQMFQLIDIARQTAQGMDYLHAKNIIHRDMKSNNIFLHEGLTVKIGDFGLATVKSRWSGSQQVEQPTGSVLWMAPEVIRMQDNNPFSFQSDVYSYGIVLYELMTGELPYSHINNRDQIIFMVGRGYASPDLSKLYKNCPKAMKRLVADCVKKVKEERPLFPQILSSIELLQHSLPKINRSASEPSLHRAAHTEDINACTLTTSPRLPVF
Sequence of C-Raf FL (full length CRAF with Y340E and Y341E activating mutations, co-expressed with h14-3-3 zeta) (P63104 whole entry partner): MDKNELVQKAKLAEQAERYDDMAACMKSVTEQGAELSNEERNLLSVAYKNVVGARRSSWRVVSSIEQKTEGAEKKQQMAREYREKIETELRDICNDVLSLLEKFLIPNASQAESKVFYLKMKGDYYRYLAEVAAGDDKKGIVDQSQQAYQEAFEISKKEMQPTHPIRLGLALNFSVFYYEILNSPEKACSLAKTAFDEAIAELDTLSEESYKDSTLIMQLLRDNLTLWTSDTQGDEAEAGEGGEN

Point of comparison: `Cc1ccc(NC(=O)c2cncc(C(F)(F)F)c2)cc1-c1ccc2c(c1)N1CCOC[C@H]1[C@](F)(CO)C2` [Example 387, N-(3-((4aS,5S)-5-fluoro-5-(hydroxymethyl)-1,2,4,4a,5,6-hexahydro-[1,4]oxazino[4,3-a]quinolin-9-yl)-4-methylphenyl)-5-(trifluoromethyl)nicotinamide], IC50 0.3 nM. Against it:
- Cc1ccc(NC(=O)c2ccnc(C(F)(F)F)c2)cc1-c1ccc2c(c1)N1CCOC[C@H]1[C@](F)(CO)C2 [Example 382, N-(3-((4aS,5S)-5-fluoro-5-(hydroxymethyl)-1,2,4,4a,5,6-hexahydro-[1,4]oxazino[4,3-a]quinolin-9-yl)-4-methylphenyl)-2-(trifluoromethyl)isonicotinamide] — within 1.5-fold, 0.2 nM
- Cc1ncc(NC(=O)c2cccc(C(F)(F)F)c2)cc1-c1ccc2c(c1)N1CCOC[C@H]1[C@](F)(CO)C2 [Example 383, N-(5-((4aS,5S)-5-fluoro-5-(hydroxymethyl)-1,2,4,4a,5,6-hexahydro-[1,4]oxazino[4,3-a]quinolin-9-yl)-6-methylpyridin-3-yl)-3(trifluoromethyl)benzamide] — 3.3-fold higher, 1 nM
- Cc1ccc(NC(=O)c2cnnc(C(F)(F)F)c2)cc1-c1ccc2c(c1)N1CCOC[C@H]1[C@](F)(CO)C2 [Example 384, N-(3-((4aS,5S)-5-fluoro-5-(hydroxymethyl)-1,2,4,4a,5,6-hexahydro-[1,4]oxazino[4,3-a]quinolin-9-yl)-4-methylphenyl)-6-(trifluoromethyl)pyridazine-4-carboxamide] — within 1.5-fold, 0.2 nM
- Cc1ccc(NC(=O)c2ccnc(C(F)(F)F)c2F)cc1-c1ccc2c(c1)N1CCOC[C@H]1[C@](F)(CO)C2 [Example 385, 3-fluoro-N-(3-((4aS,5S)-5-fluoro-5-(hydroxymethyl)-1,2,4,4a,5,6-hexahydro-[1,4]oxazino[4,3-a]quinolin-9-yl)-4-methylphenyl)-2-(trifluoromethyl)isonicotinamide] — 2-fold higher, 0.6 nM
- Cc1ccc(NC(=O)c2ccnc(C(C)(C)F)c2)cc1-c1ccc2c(c1)N1CCOC[C@H]1[C@](F)(CO)C2 [Example 386, N-(3-((4aS,5S)-5-fluoro-5-(hydroxymethyl)-1,2,4,4a,5,6-hexahydro-[1,4]oxazino[4,3-a]quinolin-9-yl)-4-methylphenyl)-2-(2-fluoropropan-2-yl)isonicotinamide] — the same, 0.3 nM
- Cc1ccc(NC(=O)c2cc(N)nc(C(F)(F)F)c2)cc1-c1ccc2c(c1)N1CCOC[C@H]1[C@](F)(CO)C2 [Example 390, 2-amino-N-(3-((4aS,5S)-5-fluoro-5-(hydroxymethyl)-1,2,4,4a,5,6-hexahydro-[1,4]oxazino[4,3-a]quinolin-9-yl)-4-methylphenyl)-6-(trifluoromethyl)isonicotinamide] — 5.7-fold higher, 1.7 nM
- Cc1ccc(NC(=O)c2cc(Cl)nc(C(F)(F)F)c2)cc1-c1ccc2c(c1)N1CCOC[C@H]1[C@](F)(CO)C2 [Example 391, 2-chloro-N-(3-((4aS,5S)-5-fluoro-5-(hydroxymethyl)-1,2,4,4a,5,6-hexahydro-[1,4]oxazino[4,3-a]quinolin-9-yl)-4-methylphenyl)-6-(trifluoromethyl)isonicotinamide] — 23-fold higher, 6.8 nM
- Cc1ccc(NC(=O)c2cc(C(C)(C)N)cc(C(F)(F)F)c2)cc1-c1ccc2c(c1)N1CCOC[C@H]1[C@](F)(CO)C2 [Example 392, 3-(2-aminopropan-2-yl)-N-(3-((4aS,5S)-5-fluoro-5-(hydroxymethyl)-1,2,4,4a.5,6-hexahydro-[1,4]oxazino[4,3-a]quinolin-9-yl)-4-methylphenyl)-5-(trifluoromethyl)benzamide] — 11-fold higher, 3.4 nM
- Cc1ccc(NC(=O)c2cncc(C(F)(F)F)c2)cc1-c1ccc2c(c1)N1CCOC[C@H]1[C@](F)(CO)C2 [Example 393, N-(3-((4aS,5S)-5-fluoro-5-(hydroxymethyl)-1,2,4,4a,5,6-hexahydro-[1,4]oxazino[4,3-a]quinolin-9-yl)-4-methylphenyl)-5-(trifluoromethyl)nicotinamide] — 3-fold lower, 0.1 nM
- Cc1ncc(NC(=O)c2cccc(C(F)(F)F)c2)cc1-c1ccc2c(c1)N1CCOC[C@H]1[C@@](F)(CO)C2 [Example 394, N-(5-((4aS,5R)-5-fluoro-5-(hydroxymethyl)-1,2,4,4a,5,6-hexahydro-[1,4]oxazino[4,3-a]quinolin-9-yl)-6-methylpyridin-3-yl)-3-(trifluoromethyl)benzamide] — the same, 0.3 nM
- Cc1ccc(NC(=O)c2ccnc(C(F)(F)F)c2F)cc1-c1ccc2c(c1)N1CCOC[C@H]1[C@@](F)(CO)C2 [Example 395, 3-fluoro-N-(3-((4aS,5R)-5-fluoro-5-(hydroxymethyl)-1,2,4,4a,5,6-hexahydro-[1,4]oxazino[4,3-a]quinolin-9-yl)-4-methylphenyl)-2-(trifluoromethyl)isonicotinamide] — within 1.5-fold, 0.2 nM
- Cc1ccc(NC(=O)c2ccnc(C(F)(F)F)c2)cc1-c1ccc2c(c1)N1CCOC[C@H]1[C@@](F)(CO)C2 [Example 396, N-(3-((4aS,5R)-5-fluoro-5-(hydroxymethyl)-1,2,4,4a,5,6-hexahydro-[1,4]oxazino[4,3-a]quinolin-9-yl)-4-methylphenyl)-2-(trifluoromethyl)isonicotinamide] — within 1.5-fold, 0.2 nM
- Cc1ccc(NC(=O)c2ccnc(C(F)(F)F)c2)cc1-c1ccc2c(c1)N1CCOC[C@@H]1[C@](F)(CO)C2 [Example 399, N-(3-((4aR,5S)-5-fluoro-5-(hydroxymethyl)-1,2,4,4a,5,6-hexahydro-[1,4]oxazino[4,3-a]quinolin-9-yl)-4-methylphenyl)-2-(trifluoromethyl)isonicotinamide] — the same, 0.3 nM
- Cc1ccc(NC(=O)c2ccnc(C(C)(C)F)c2)cc1-c1ccc2c(c1)N1CCOC[C@@H]1[C@](F)(CO)C2 [Example 400, N-(3-((4aR,5S)-5-fluoro-5-(hydroxymethyl)-1,2,4,4a,5,6-hexahydro-[1,4]oxazino[4,3-a]quinolin-9-yl)-4-methylphenyl)-2-(2-fluoropropan-2-yl)isonicotinamide] — 3-fold lower, 0.1 nM
- Cc1ccc(NC(=O)c2ccnc(C(C)(C)C#N)c2)cc1-c1ccc2c(c1)N1CCOC[C@@H]1[C@](F)(CO)C2 [Example 401, 2-(2-cyanopropan-2-yl)-N-(3-((4aR,5S)-5-fluoro-5-(hydroxymethyl)-1,2,4,4a,5,6-hexahydro-[1,4]oxazino[4,3-a]quinolin-9-yl)-4-methylphenyl)isonicotinamide] — the same, 0.3 nM
- Cc1ccc(NC(=O)c2cnnc(C(F)(F)F)c2)cc1-c1ccc2c(c1)N1CCOC[C@@H]1[C@](F)(CO)C2 [Example 403, N-(3-((4aR,5S)-5-fluoro-5-(hydroxymethyl)-1,2,4,4a,5,6-hexahydro-[1,4]oxazino[4,3-a]quinolin-9-yl)-4-methylphenyl)-6-(trifluoromethyl)pyridazine-4-carboxamide] — 3-fold lower, 0.1 nM
- Cc1ncc(NC(=O)c2cccc(C(F)(F)F)c2)cc1-c1ccc2c(c1)N1CCOC[C@@H]1[C@@](CO)(CF)C2 [Example 406, N-(5-((4aS,5S)-5-(fluoromethyl)-5-(hydroxymethyl)-1,2,4,4a,5,6-hexahydro-[1,4]oxazino[4,3-a]quinolin-9-yl)-6-methylpyridin-3-yl)-3-(trifluoromethyl)benzamide] — within 1.5-fold, 0.4 nM
- Cc1ccc(NC(=O)c2ccnc(C(C)(F)F)c2)cc1-c1ccc2c(c1)N1CCOC[C@@H]1[C@@](CO)(CF)C2 [Example 407, 2-(1,1-difluoroethyl)-N-(3-((4aS,5S)-5-(fluoromethyl)-5-(hydroxymethyl)-1,2,4,4a,5,6-hexahydro-[1,4]oxazino[4,3-a]quinolin-9-yl)-4-methylphenyl)isonicotinamide] — 3-fold lower, 0.1 nM
- Cc1ccc(NC(=O)c2ccnc(C(F)(F)F)c2)cc1-c1ccc2c(c1)N1CCOC[C@H]1[C@](CO)(CF)C2 [Example 408, N-(3-((4aR,5R)-5-(fluoromethyl)-5-(hydroxymethyl)-1,2,4,4a,5,6-hexahydro-[1,4]oxazino[4,3-a]quinolin-9-yl)-4-methylphenyl)-2-(trifluoromethyl)isonicotinamide] — 2.3-fold higher, 0.7 nM
- Cc1ncc(NC(=O)c2cccc(C(F)(F)F)c2)cc1-c1ccc2c(c1)N1CCOC[C@H]1[C@](CO)(CF)C2 [Example 409, N-(5-((4aR,5R)-5-(fluoromethyl)-5-(hydroxymethyl)-1,2,4,4a,5,6-hexahydro-[1,4]oxazino[4,3-a]quinolin-9-yl)-6-methylpyridin-3-yl)-3-(trifluoromethyl)benzamide] — within 1.5-fold, 0.4 nM
- Cc1ccc(NC(=O)c2ccnc(C(C)(F)F)c2)cc1-c1ccc2c(c1)N1CCOC[C@H]1[C@](CO)(CF)C2 [Example 410, 2-(1,1-difluoroethyl)-N-(3-((4aR,5R)-5-(fluoromethyl)-5-(hydroxymethyl)-1,2,4,4a,5,6-hexahydro-[1,4]oxazino[4,3-a]quinolin-9-yl)-4-methylphenyl)isonicotinamide] — 1.7-fold higher, 0.5 nM
- Cc1ccc(NC(=O)c2ccnc(C(C)(F)F)c2)cc1-c1cc2n(c(=O)c1)CC[C@H]1COCCN21 [Example 411, (S)-2-(1,1-difluoroethyl)-N-(4-methyl-3-(8-oxo-1,2,4,4a,5,6-hexahydro-8H-pyrido[2′,1′:2,3]pyrimido[6,1-c][1,4]oxazin-10-yl)phenyl)isonicotinamide] — within 1.5-fold, 0.2 nM
- Cc1ccc(NC(=O)c2ccnc(C(C)(F)F)c2)cc1-c1cc2n(c(=O)c1)CC[C@@H]1COCCN21 [Example 413, (R)-2-(1,1-difluoroethyl)-N-(4-methyl-3-(8-oxo-1,2,4,4a,5,6-hexahydro-8H-pyrido[2′,1′:2,3]pyrimido[6,1-c][1,4]oxazin-10-yl)phenyl)isonicotinamide] — within 1.5-fold, 0.2 nM
- Cc1ccc(NC(=O)c2ccnc(C(F)(F)F)c2F)cc1-c1cc2n(c(=O)c1)CC[C@@H]1COCCN21 [Example 415, (R)-3-fluoro-N-(4-methyl-3-(8-oxo-1,2,4,4a,5,6-hexahydro-8H-pyrido[2′,1′:2,3]pyrimido[6,1-c][1,4]oxazin-10-yl)phenyl)-2-(trifluoromethyl)isonicotinamide] — 2.7-fold higher, 0.8 nM
